Assay results from ChEMBL document CHEMBL1152036, “Acyclic nucleoside triphosphate analogs as terminators in biocatalytic DNA replication” (Bioorg Med Chem Lett, 1997).

What was measured:
[1] = test system: Nucleic Acid; experiment: The compound was evaluated as substrate for DNA replicating enzyme, AmpliTaq FS DNA polymerase at a concentration of 100 uM; Termination; format: nucleic-acid assay
[2] = test system: Nucleic Acid; experiment: The compound was evaluated as substrate for DNA replicating enzyme, Bst DNA polymerase; No incorporation; format: nucleic-acid assay
[3] = molecular target: DNA polymerase I, thermostable (Thermus aquaticus) (UniProt P19821); experiment: The compound was evaluated as substrate for DNA replicating enzyme, Taq DNA polymerase at a concentration of 100 uM; Termination
[4] = test system: Nucleic Acid; experiment: The compound was evaluated as substrate for DNA replicating enzyme, rTth DNA polymerase; No incorporation; format: nucleic-acid assay
[5] = test system: HIV-1 reverse transcriptase (Human immunodeficiency virus 1); experiment: The compound was evaluated as substrate for DNA replicating enzyme, HIV-1 RT at a concentration of 1 mM; Not assayed
[6] = test system: Nucleic Acid; experiment: The compound was evaluated as substrate for DNA replicating enzyme, AmpliTaq FS DNA polymerase at a concentration of 1 mM; Termination; format: nucleic-acid assay
[7] = test system: Nucleic Acid; experiment: The compound was evaluated as substrate for DNA replicating enzyme, AmpliTaq DNA polymerase; No incorporation; format: nucleic-acid assay
[8] = molecular target: DNA polymerase I, thermostable (Thermus aquaticus) (UniProt P19821); experiment: The compound was evaluated as substrate for DNA replicating enzyme, Taq DNA polymerase at a concentration of 1 mM; Termination
[9] = test system: HIV-1 reverse transcriptase (Human immunodeficiency virus 1); experiment: The compound was evaluated as substrate for DNA replicating enzyme, HIV-1 RT at a concentration of 1 mM; Termination

DNA polymerase I, thermostable (Thermus aquaticus), sequence (P19821 whole entry): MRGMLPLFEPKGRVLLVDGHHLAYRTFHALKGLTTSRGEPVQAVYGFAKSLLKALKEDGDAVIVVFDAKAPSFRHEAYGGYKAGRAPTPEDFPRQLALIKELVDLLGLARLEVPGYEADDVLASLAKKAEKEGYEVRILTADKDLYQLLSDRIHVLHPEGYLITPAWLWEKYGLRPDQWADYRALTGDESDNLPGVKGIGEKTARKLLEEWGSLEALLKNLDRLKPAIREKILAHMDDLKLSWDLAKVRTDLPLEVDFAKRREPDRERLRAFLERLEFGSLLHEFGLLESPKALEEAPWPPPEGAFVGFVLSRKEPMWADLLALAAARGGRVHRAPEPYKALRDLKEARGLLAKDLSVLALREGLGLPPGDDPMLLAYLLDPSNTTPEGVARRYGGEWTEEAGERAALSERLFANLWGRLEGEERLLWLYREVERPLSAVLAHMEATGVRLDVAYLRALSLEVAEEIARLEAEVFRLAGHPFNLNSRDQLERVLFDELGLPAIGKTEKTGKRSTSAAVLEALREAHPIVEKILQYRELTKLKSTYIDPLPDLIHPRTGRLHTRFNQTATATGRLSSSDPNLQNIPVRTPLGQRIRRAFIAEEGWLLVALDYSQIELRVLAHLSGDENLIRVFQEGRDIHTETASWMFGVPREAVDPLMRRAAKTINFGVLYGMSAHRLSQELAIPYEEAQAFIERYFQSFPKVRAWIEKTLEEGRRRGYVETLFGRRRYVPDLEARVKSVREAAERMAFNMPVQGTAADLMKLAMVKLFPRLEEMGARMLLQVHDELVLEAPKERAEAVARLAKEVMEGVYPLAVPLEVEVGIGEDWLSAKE

| Activity [1] | Activity [2] | Activity [3] | Activity [4] | Activity [5] | Activity [6] | Activity [7] | Activity [8] | Activity [9] | SMILES |
| --- | --- | --- | --- | --- | --- | --- | --- | --- | --- |
| No incorporation | No incorporation | No incorporation | No incorporation | No incorporation |  |  |  |  | CN(CCOP(=O)(O)OP(=O)(O)OP(=O)(O)O)C(=O)Cn1cnc2c(N)ncnc21 |
|  | No incorporation |  | No incorporation |  | No incorporation | No incorporation | No incorporation | No incorporation | Cc1cn(CC(=O)N(C)CCOP(=O)(O)OP(=O)(O)OP(=O)(O)O)c(=O)[nH]c1=O |
